In the NIST ThermoML archive (doi:10.1021/acs.jced.8b00201):
Numbers after ± are expanded uncertainties.

Test: xn = mol fraction of the nth substance listed
Settings: 100 kPa, Liquid; for viscosity: Concentric cylinders viscometry; for mass density: Vibrating tube method

O=C1CCCCC1 [cyclohexanone] + CCCCCCCCO
viscosity (293.15 K, x1 = 0.0803): 7.76 ± 0.39 mPa·s | viscosity (293.15 K, x1 = 0.1519): 6.62 ± 0.33 mPa·s | viscosity (293.15 K, x1 = 0.2388): 5.58 ± 0.28 mPa·s | viscosity (293.15 K, x1 = 0.3427): 4.48 ± 0.23 mPa·s | viscosity (293.15 K, x1 = 0.4378): 3.72 ± 0.19 mPa·s | viscosity (293.15 K, x1 = 0.5606): 2.97 ± 0.15 mPa·s | viscosity (293.15 K, x1 = 0.6498): 2.57 ± 0.13 mPa·s | viscosity (293.15 K, x1 = 0.7407): 2.33 ± 0.12 mPa·s | viscosity (293.15 K, x1 = 0.8422): 2.28 ± 0.12 mPa·s | viscosity (293.15 K, x1 = 0.9377): 2.25 ± 0.11 mPa·s | viscosity (293.15 K, x1 = 1): 2.3 ± 0.12 mPa·s | mass density (293.15 K, x1 = 0.0803): 831.3 ± 20 kg/m3 | mass density (293.15 K, x1 = 0.1519): 837.4 ± 20 kg/m3 | mass density (293.15 K, x1 = 0.2388): 845.2 ± 20 kg/m3 | mass density (293.15 K, x1 = 0.3427): 855.4 ± 20 kg/m3 | mass density (293.15 K, x1 = 0.4378): 865.6 ± 20 kg/m3 | mass density (293.15 K, x1 = 0.5606): 880 ± 20 kg/m3 | mass density (293.15 K, x1 = 0.6498): 891.6 ± 20 kg/m3 | mass density (293.15 K, x1 = 0.7407): 904.5 ± 20 kg/m3 | mass density (293.15 K, x1 = 0.8422): 920.4 ± 20 kg/m3 | mass density (293.15 K, x1 = 0.9377): 937.4 ± 20 kg/m3 | mass density (293.15 K, x1 = 1): 948.8 ± 20 kg/m3 | viscosity (298.15 K, x1 = 0.0803): 6.52 ± 0.33 mPa·s | viscosity (298.15 K, x1 = 0.1519): 5.65 ± 0.28 mPa·s | viscosity (298.15 K, x1 = 0.2388): 4.8 ± 0.24 mPa·s | viscosity (298.15 K, x1 = 0.3427): 3.91 ± 0.2 mPa·s | viscosity (298.15 K, x1 = 0.4378): 3.29 ± 0.17 mPa·s | viscosity (298.15 K, x1 = 0.5606): 2.66 ± 0.13 mPa·s | viscosity (298.15 K, x1 = 0.6498): 2.32 ± 0.12 mPa·s | viscosity (298.15 K, x1 = 0.7407): 2.13 ± 0.11 mPa·s | viscosity (298.15 K, x1 = 0.8422): 2.07 ± 0.1 mPa·s | viscosity (298.15 K, x1 = 0.9377): 2.04 ± 0.1 mPa·s | viscosity (298.15 K, x1 = 1): 2.09 ± 0.11 mPa·s | mass density (298.15 K, x1 = 0.0803): 827.7 ± 20 kg/m3 | mass density (298.15 K, x1 = 0.1519): 833.6 ± 20 kg/m3 | mass density (298.15 K, x1 = 0.2388): 841.3 ± 20 kg/m3 | mass density (298.15 K, x1 = 0.3427): 851.2 ± 20 kg/m3 | mass density (298.15 K, x1 = 0.4378): 861.2 ± 20 kg/m3 | mass density (298.15 K, x1 = 0.5606): 875.4 ± 20 kg/m3 | mass density (298.15 K, x1 = 0.6498): 886.8 ± 20 kg/m3 | mass density (298.15 K, x1 = 0.7407): 899.5 ± 20 kg/m3 | mass density (298.15 K, x1 = 0.8422): 915.1 ± 20 kg/m3 | mass density (298.15 K, x1 = 0.9377): 931.4 ± 20 kg/m3 | mass density (298.15 K, x1 = 1): 943.1 ± 20 kg/m3 | viscosity (303.15 K, x1 = 0.0803): 5.54 ± 0.28 mPa·s | viscosity (303.15 K, x1 = 0.1519): 4.87 ± 0.25 mPa·s | viscosity (303.15 K, x1 = 0.2388): 4.17 ± 0.21 mPa·s | viscosity (303.15 K, x1 = 0.3427): 3.44 ± 0.17 mPa·s | viscosity (303.15 K, x1 = 0.4378): 2.94 ± 0.15 mPa·s | viscosity (303.15 K, x1 = 0.5606): 2.42 ± 0.12 mPa·s | viscosity (303.15 K, x1 = 0.6498): 2.16 ± 0.11 mPa·s | viscosity (303.15 K, x1 = 0.7407): 1.97 ± 0.1 mPa·s | viscosity (303.15 K, x1 = 0.8422): 1.9 ± 0.1 mPa·s | viscosity (303.15 K, x1 = 0.9377): 1.87 ± 0.09 mPa·s | viscosity (303.15 K, x1 = 1): 1.91 ± 0.1 mPa·s | mass density (303.15 K, x1 = 0.0803): 824.1 ± 20 kg/m3 | mass density (303.15 K, x1 = 0.1519): 829.8 ± 20 kg/m3 | mass density (303.15 K, x1 = 0.2388): 837.4 ± 20 kg/m3 | mass density (303.15 K, x1 = 0.3427): 847.2 ± 20 kg/m3 | mass density (303.15 K, x1 = 0.4378): 857 ± 20 kg/m3 | mass density (303.15 K, x1 = 0.5606): 871.1 ± 20 kg/m3 | mass density (303.15 K, x1 = 0.6498): 882.3 ± 20 kg/m3 | mass density (303.15 K, x1 = 0.7407): 894.9 ± 20 kg/m3 | mass density (303.15 K, x1 = 0.8422): 910.4 ± 20 kg/m3 | mass density (303.15 K, x1 = 0.9377): 926.6 ± 20 kg/m3 | mass density (303.15 K, x1 = 1): 938.2 ± 20 kg/m3 | viscosity (308.15 K, x1 = 0.0803): 4.73 ± 0.24 mPa·s | viscosity (308.15 K, x1 = 0.1519): 4.16 ± 0.21 mPa·s | viscosity (308.15 K, x1 = 0.2388): 3.61 ± 0.18 mPa·s | viscosity (308.15 K, x1 = 0.3427): 3.03 ± 0.15 mPa·s | viscosity (308.15 K, x1 = 0.4378): 2.6 ± 0.13 mPa·s | viscosity (308.15 K, x1 = 0.5606): 2.15 ± 0.11 mPa·s | viscosity (308.15 K, x1 = 0.6498): 1.94 ± 0.1 mPa·s | viscosity (308.15 K, x1 = 0.7407): 1.79 ± 0.09 mPa·s | viscosity (308.15 K, x1 = 0.8422): 1.74 ± 0.09 mPa·s | viscosity (308.15 K, x1 = 0.9377): 1.72 ± 0.09 mPa·s | viscosity (308.15 K, x1 = 1): 1.75 ± 0.09 mPa·s
